Data from US10421774B2 (priority 2016, dated 2019).
Read-outs that look alike come from different tables or passages of the source.

Tests used:
Assay in all cases: microbe, parasite or virus in culture
Type in all cases: cell-based, HIV-1
[1] = tested on: T332S/V362I/Pr R41G virus; conditions: for EC50: Human immunodeficiency virus 1, MT2, read-out: T332S/V362I/pr41G EC50
Protocol: (§1) Cells. MT-2 cells and 293T cells were obtained from the NIH AIDS Research and Reference Reagent Program. Cell lines were sub-cultured twice a week in either RPMI 1640 (MT-2) or DMEM (293T, HeLa) media supplemented with 10% heat inactivated fetal bovine serum (FBS), 100 units/mL of penicillin G and 100 μg/mL of streptomycin. The DMEM medium was additionally supplemented with 10 mM HEPES buffer, pH 7.55, 2 mM L-glutamine and 0.25 μg/mL of amphotericin B.
(§2) Viruses. NLRepRluc virus contains the Renilla luciferase marker in place of the viral nef gene. The proviral plasmid pNLRepRluc was constructed at Bristol-Myers Squibb, starting from a proviral NL4-3 clone (B subtype) that was obtained from the NIH AIDS Research and Reference Reagent Program. The parental recombinant wild type (WT) virus (NLRepRlucP373S) was derived from NLRepRluc and contains the additional substitution of P373 for serine in Gag (within the SP1 spacer), the most common 373 variation in subtype B. Other recombinant viruses (A364V, V370A/ΔT371 and the “T3325 triple” (T332S/V362I+HIV-1 protease R41G)) were generated by site-directed mutagenesis of plasmid pNLRepRlucP373S to introduce those amino acid substitutions in Gag and protease. Recombinant virus DNA was then used to generate virus stocks by transfection of 293T cells (Lipofectamine PLUS kit, Invitrogen). Titers of virus stocks were determined using a luciferase assay (Dual-Luciferase® Reporter Assay System, Promega, Milwaukee, Wis., USA) endpoint.
(§3) Multiple cycle drug susceptibility assay. Pellets of MT-2 cells were infected with NLRepRlucP373S Gag site-directed viruses, where initial inocula of the reporter strains were normalized using equivalent endpoint luciferase activity signals. Such cell-virus mixtures were resuspended in medium, incubated for 1-hour at 37° C./CO2, and added to compound containing 96-well plates at a final cell density of 10,000 cells per well. The test compounds were 3-fold serially diluted in 100% DMSO, and assayed at a final DMSO concentration of 1%. After 4-5 day incubation at 37° C./CO2, virus yields were determined by Renilla luciferase activity (Dual-Luciferase® Reporter Assay System, Promega). The endpoint luminescence was detected on a Wallac Trilux (PerkinElmer).
T332sN362I/Pr R41G (N14.3, B Clade) virus′ was obtained as follows: Selection for resistance of HIV-1 strain […] virus with the HIV maturation inhibitor (MI) compound
At passage 8 virus was harvested and sequenced.
(§4) All three recombinant viruses were used as described above in the HIV cell culture assay for the NL4-3 virus.

[2] = tested on: NLRepRlucP373S recombinant wild type (WT) virus
Protocol: as §1, §2, §3
(§5) The 50% inhibitory concentrations (EC50S) were calculated by using the exponential form of the median effect equation where Percent Inhibition=1/[1+(EC50/drug conc.^m], where m is a parameter that reflects the slope of the concentration-response curve. Background was taken as the residual signal observed upon inhibition at the highest concentration of a control protease inhibitor, NFV (3 μM).
as §5, with “The 90%” for “The 50%”, “concentrations (EC90S)” for “concentrations (EC50S)”, “where ECF=[(F/(100−F)]^1/H·EC50,” for “where Percent Inhibition=1/[1+(EC50/drug conc.^m],”, “where H” for “where m”

[3] = tested on: gag V370A/ΔT371 virus; conditions: for EC50: Human immunodeficiency virus 1, MT2, read-out: V370A/ΔT371 EC50
Protocol: as §1, §2, §3
(§6) HIV-1 NL4-3 expressing Renilla luciferase gene was converted to the gag V370A/ΔT371 virus by site directed mutagenesis. A364V is a site directed mutant.
as §4

[4] = tested on: A364V site directed mutant virus; conditions: for EC50: Human immunodeficiency virus 1, MT2, read-out: A364V EC50
Protocol: as §1, §2, §3, §6, §4

[5] = Human immunodeficiency virus 1, MT2, read-out: WT EC50

| Structure (SMILES) | EC50 [1] | EC50 [2, 5] | EC50 [3] | EC50 [4] | EC90 ([1]; Human immunodeficiency virus 1, read-out: T332S/V362I/prR41G EC90) | EC50 ([2]; Human immunodeficiency virus 1, read-out: WT EC50) | EC90 ([3]; Human immunodeficiency virus 1, read-out: V370A/ΔT371 EC90) | EC90 ([4]; Human immunodeficiency virus 1, read-out: A364V EC90) |
| --- | --- | --- | --- | --- | --- | --- | --- | --- |
| C=C(C)[C@@H]1CC[C@]2(NCCN3CCS(=O)(=O)CC3)CC[C@]3(C)[C@H](CC[C@@H]4[C@@]5(C)CC=C(C6=CC[C@](COc7ncccc7C(N)=O)(C(=O)O)CC6)C(C)(C)[C@@H]5CC[C@]43C)[C@@H]12 [Example 24, (R)-1-(((3-carbamoylpyridin-2-yl)oxy)methyl)-4-((1R,3aS,5aR,5bR,7aR,11aS,11bR,13aR,13bR)-3a-((2-(1,1-dioxidothiomorpholino)ethyl)amino)-5a,5b,8,8,11a-pentamethyl-1-(prop-1-en-2-yl)-2,3,3a,4,5,5a,5b,6,7,7a,8,11,11a,11 b,12,13,13a,13b-octadecahydro-1H-cyclopenta[a]chrysen-9-yl)cyclohex-3-ene-1-carboxylic acid] | 12 nM | 2 nM | 12 nM | 8 nM |  |  |  |  |
| C=C(C)[C@@H]1CC[C@]2(NCCN3CCS(=O)(=O)CC3)CC[C@]3(C)[C@H](CC[C@@H]4[C@@]5(C)CC=C(C6=CC[C@@](COc7ncccc7C#N)(C(=O)O)CC6)C(C)(C)[C@@H]5CC[C@]43C)[C@@H]12 [Example 25, (S)-1-(((3-cyanopyridin-2-yl)oxy)methyl)-4-((1R,3aS,5aR,5bR,7aR,11aS,11bR,13aR,13bR)-3a-((2-(1,1-dioxidothiomorpholino)ethyl)amino)-5a,5b,8,8,11a-pentamethyl-1-(prop-1-en-2-yl)-2,3,3a,4,5,5a,5b,6,7,7a,8,11,11a,11b,12,13,13a,13b-octadecahydro-1H-cyclopenta[a]chrysen-9-yl)cyclohex-3-ene-1-carboxylic acid] | 10 nM | 2 nM | 10 nM | 18 nM | 21 nM | 2 nM | 2 nM | 41 nM |
| C=C(C)[C@@H]1CC[C@]2(NCCN3CCS(=O)(=O)CC3)CC[C@]3(C)[C@H](CC[C@@H]4[C@@]5(C)CC=C(C6=CC[C@@](COc7ncccc7C(N)=O)(C(=O)O)CC6)C(C)(C)[C@@H]5CC[C@]43C)[C@@H]12 [Example 26, (S)-1-(((3-carbamoylpyridin-2-yl)oxy)methyl)-4-((1R,3aS,5aR,5bR,7aR,11aS,11bR,13aR,13bR)-3a-((2-(1,1-dioxidothiomorpholino)ethyl)amino)-5a,5b,8,8,11a-pentamethyl-1-(prop-1-en-2-yl)-2,3,3a,4,5,5a,5b,6,7,7a,8,11,11a,11b,12,13,13a,13b-octadecahydro-1H-cyclopenta[a]chrysen-9-yl)cyclohex-3-ene-1-carboxylic acid] | 41 nM | 5 nM | 41 nM | 28 nM |  |  |  |  |
| C=C(C)[C@@H]1CC[C@]2(NCCN3CCS(=O)(=O)CC3)CC[C@]3(C)[C@H](CC[C@@H]4[C@@]5(C)CC=C(C6=CC[C@](COc7ncccc7C(=O)OC)(C(=O)O)CC6)C(C)(C)[C@@H]5CC[C@]43C)[C@@H]12 [Example 27] | < 50 nM | < 50 nM | < 50 nM | < 50 nM |  |  |  |  |
| C=C(C)[C@@H]1CC[C@]2(NCCN3CCS(=O)(=O)CC3)CC[C@]3(C)[C@H](CC[C@@H]4[C@@]5(C)CC=C(C6=CC[C@@](COc7cccc(OC)n7)(C(=O)O)CC6)C(C)(C)[C@@H]5CC[C@]43C)[C@@H]12 [Example 28, (S)-4-((1R,3aS,5aR,5bR,7aR,11aS,11bR,13aR,13bR)-3a-((2-(1,1-dioxidothiomorpholino)ethyl)amino)-5a,5b,8,8,11a-pentamethyl-1-(prop-1-en-2-yl)-2,3,3a,4,5,5a,5b,6,7,7a,8,11,11a,11 b,12,13,13a,13b-octadecahydro-1H-cyclopenta[a]chrysen-9-yl)-1-(((6-methoxypyridin-2-yl)oxy)methyl)cyclohex-3-ene-1-carboxylic acid] | 21 nM | 3 nM | 21 nM | 21 nM |  |  |  |  |
| C=C(C)[C@@H]1CC[C@]2(NCCN3CCS(=O)(=O)CC3)CC[C@]3(C)[C@H](CC[C@@H]4[C@@]5(C)CC=C(C6=CC[C@@](COc7cccc(F)n7)(C(=O)O)CC6)C(C)(C)[C@@H]5CC[C@]43C)[C@@H]12 [Example 29, (S)-4-((1R,3aS,5aR,5bR,7aR,11aS,11bR,13aR,13bR)-3a-((2-(1,1-dioxidothiomorpholino)ethyl)amino)-5a,5b,8,8,11a-pentamethyl-1-(prop-1-en-2-yl)-2,3,3a,4,5,5a,5b,6,7,7a,8,11,11a,11 b,12,13,13a,13b-octadecahydro-1H-cyclopenta[a]chrysen-9-yl)-1-(((6-fluoropyridin-2-yl)oxy)methyl)cyclohex-3-ene-1-carboxylic acid] | 21 nM | 5 nM | 21 nM | 5 nM |  |  |  |  |
| C=C(C)[C@@H]1CC[C@]2(NCCN3CCS(=O)(=O)CC3)CC[C@]3(C)[C@H](CC[C@@H]4[C@@]5(C)CC=C(C6=CC[C@@](COc7cc(C(N)=O)ccn7)(C(=O)O)CC6)C(C)(C)[C@@H]5CC[C@]43C)[C@@H]12 [Example 30, (S)-1-(((4-carbamoylpyridin-2-yl)oxy)methyl)-4-((1R,3aS,5aR,5bR,7aR,11aS,11bR,13aR,13bR)-3a-((2-(1,1-dioxidothiomorpholino)ethyl)amino)-5a,5b,8,8,11a-pentamethyl-1-(prop-1-en-2-yl)-2,3,3a,4,5,5a,5b,6,7,7a,8,11,11a,11b,12,13,13a,13b-octadecahydro-1H-cyclopenta[a]chrysen-9-yl)cyclohex-3-ene-1-carboxylic acid] | < 50 nM | < 50 nM | < 50 nM | < 50 nM |  |  |  |  |
| C=C(C)[C@@H]1CC[C@]2(NCCN3CCS(=O)(=O)CC3)CC[C@]3(C)[C@H](CC[C@@H]4[C@@]5(C)CC=C(C6=CC[C@@](COc7ccccn7)(C(=O)O)CC6)C(C)(C)[C@@H]5CC[C@]43C)[C@@H]12 [Example 31, (S)-4-((1R,3aS,5aR,5bR,7aR,11aS,11bR,13aR,13bR)-3a-((2-(1,1-dioxidothiomorpholino)ethyl)amino)-5a,5b,8,8,11a-pentamethyl-1-(prop-1-en-2-yl)-2,3,3a,4,5,5a,5b,6,7,7a,8,11,11a,11 b,12,13,13a,13b-octadecahydro-1H-cyclopenta[a]chrysen-9-yl)-1-((pyridin-2-yloxy)methyl)cyclohex-3-ene-1-carboxylic acid] | 9 nM | 2 nM | 9 nM | 6 nM |  |  |  |  |
| C=C(C)[C@@H]1CC[C@]2(NCCN3CCS(=O)(=O)CC3)CC[C@]3(C)[C@H](CC[C@@H]4[C@@]5(C)CC=C(C6=CC[C@@](COc7cnccn7)(C(=O)O)CC6)C(C)(C)[C@@H]5CC[C@]43C)[C@@H]12 [Example 32, (S)-4-((1R,3aS,5aR,5bR,7aR,11aS,11bR,13aR,13bR)-3a-((2-(1,1-dioxidothiomorpholino)ethyl)amino)-5a,5b,8,8,11a-pentamethyl-1-(prop-1-en-2-yl)-2,3,3a,4,5,5a,5b,6,7,7a,8,11,11a,11b,12,13,13a,13b-octadecahydro-1H-cyclopentatalchrysen-9-yl)-1-((pyrazin-2-yloxy)methyl)cyclohex-3-ene-1-carboxylic acid] | < 50 nM | < 50 nM | < 50 nM | < 50 nM |  |  |  |  |
